# Read-outs that look alike come from different tables or passages of the source.
# Tests used:
# [1] = serum, 37° C.; serum species and time not stated
# Experimental: Each of compounds (24), (26), (28) and (30) (drug complexes) obtained in Example 8 was dissolved in physiological saline so that the concentration thereof in terms of dexamethasone was 80 μg/ml, to thereby obtain four solutions. 50 μl of each of the above-obtained four solutions was individually added to each of 250 μl of mouse serum and 250 μl of human serum, and the amounts of dexamethasone released from the respective compounds at 37° C. were determined as follows.
# The recovery and quantitative analysis of dexamethasone in serum were conducted as follows: 250 μl of phosphate buffer (pH 7.4) was added to […] of each of the sera to which the above-mentioned solution was added, to thereby obtain a mixture. To the obtained mixture was added 3 ml of a solution of hydrocortisone acetate (as an internal standard for the below-mentioned HPLC analysis, the concentration of hydrocortisone acetate: 10 ng/ml) in a mixture of acetonitrile and methanol (acetonitrile/methanol=4/1) and subjected to centrifugation (3,000 rpm, 10 minutes, 4° C.). To 700 μl of the resultant supernatant was added 700 µl of distilled water, to thereby obtain a mixture. The obtained mixture was subjected to filtration with a membrane filter (pore size 0.2 μm), and the resultant filtrate was used as a sample for the quantitative analysis of dexamethasone by HPLC under the following conditions. […]
# Column: Asahipak […] C18 (4.6×150 mm)
# Column temperature: room temperature
# The detected wavelength: 254 nm
# Mobile phase: Linear gradient
# 0 min.: 20% aqueous acetonitrile (20% CH3CN/H2O)
# 20 min.: 50% aqueous acetonitrile (50% CH3CN/H2O)
# [2] = Dissolution in physiological saline; assay type: physicochemical; details: 1 mg in 10 ml of physiological saline
# B16 melanoma cells [3] = details: 50 mg/kg in terms of paclitaxel, intravenous, six days after administration; paclitaxel 50 mg/kg
# Experimental: Further, a control solution was prepared by dissolving paclitaxel per se into a mixture of ethanol, Cremophore EL (manufactured and sold by Sigma, U.S.A.) and physiological saline. Thus, four types of solutions, namely, three different types of test sample solutions and one control solution were obtained.
# Twenty-eight female C57BL/6 mice (six weeks old) were divided into four groups, each consisting of seven mice, and subsequently, B16 melanoma cells were intradermally transplanted to the groin of each of the mice (5×10^6 cells per mouse). After eight days from the transplantation, the above-mentioned four types of solutions were administered to the transplanted mice at the tails thereof intravenously so that the mice belonging to the same group received the administration of the same type of solution. […] With respect to the control solution, the dose of paclitaxel was 50 mg/kg.
# (§1) Separately, a group consisting of thirteen mice, which were transplanted with B16 melanoma cells in the same manner as mentioned above, was provided. Each of the mice of such group received the administration of physiological saline, to thereby obtain a non-treated group of mice.
# The tumor volume was determined as follows. The external major and minor diameters (a and b, respectively) (each in mm) of the tumor were measured, and the tumor volume (V) was obtained according to the following formula. [formula]
# B16 melanoma cells [4] = details: 50 mg/kg in terms of paclitaxel, intravenous, six days after administration; paclitaxel 50 mg/kg; remark: listed apart in the source
# Experimental: (§2) Further, a control solution was prepared by dissolving paclitaxel per se into a mixture of ethanol, Cremophore EL (manufactured and sold by Sigma, U.S.A.) and physiological saline.
# (§3) With respect to the control solution, the dose of paclitaxel was 50 mg/kg.
# as §1
# (§4) The tumor volume was determined as follows. […] [formula]
# colon 26 tumor cells = details: 50 mg/kg in terms of paclitaxel, intravenous, repeated every 4 days; paclitaxel 50 mg/kg
# Experimental: as §2, §3
# Each of the mice of such group received the administration of only physiological saline in the same manner as in the case of the administration of the test sample solution, to thereby obtain a non-treated group of mice.
# Evaluation was made of the antitumor activity in terms of the change (with the lapse of time) of the average tumor volume (%).
# as §4
Compound,dexamethasone introduced into the compound that was released [1],antitumor activity (relative average tumor volume) as compared to paclitaxel per se (B16 melanoma cells [3]),also measured
"CCC(=O)N[C@H](C(=O)OCC(=O)[C@@]1(O)[C@H](C)C[C@H]2[C@@H]3CCC4=CC(=O)C=C[C@]4(C)[C@@]3(F)[C@@H](O)C[C@@]21C)[C@@H](C)CC [compound (24), 21-propanoylisoleucyl-dexamethasone]",≤ 10%,–,–
"CCC(=O)NCC(=O)OCC(=O)[C@@]1(O)[C@H](C)C[C@H]2[C@@H]3CCC4=CC(=O)C=C[C@]4(C)[C@@]3(F)[C@@H](O)C[C@@]21C [compound (26), 21-propanoylglycyl-dexamethasone]",approximately 95%,–,–
"CCC(=O)N[C@@H](C)C(=O)OCC(=O)[C@@]1(O)[C@H](C)C[C@H]2[C@@H]3CCC4=CC(=O)C=C[C@]4(C)[C@@]3(F)[C@@H](O)C[C@@]21C [compound (28), 21-propanoylalanyl-dexamethasone]",approximately 70%,–,–
"CCC(=O)OCC(=O)[C@@]1(O)[C@H](C)C[C@H]2[C@@H]3CCC4=CC(=O)C=C[C@]4(C)[C@@]3(F)[C@@H](O)C[C@@]21C [compound (30), 21-propanoyl-dexamethasone]",≥ 98%,–,–
CC(=O)O[C@H]1C(=O)[C@@]2(C)[C@H]([C@H](OC(=O)c3ccccc3)[C@]3(O)C[C@H](OC(=O)[C@H](O)[C@@H](NC(=O)c4ccccc4)c4ccccc4)C(C)=C1C3(C)C)[C@]1(OC(C)=O)CO[C@@H]1C[C@@H]2O [paclitaxel],–,–,dissolution of paclitaxel per se [2]: could not be dissolved completely
carboxymethylated dextran-2′-Ala-paclitaxel [compound (7)],–,excellent,–
carboxymethylated dextran-2′-Gly-Gly-Phe-Gly-paclitaxel [compound (33)],–,–,antitumor activity (relative average tumor volume) as compared to paclitaxel per se (B16 melanoma cells [4]): significantly excellent; antitumor activity (change of average tumor volume with time) as compared to paclitaxel per se (colon 26 tumor cells): significantly excellent
carboxymethylated dextran-2′-Gly-paclitaxel [compound (3)],–,significantly excellent,–
carboxymethylated dextran-2′-Ile-paclitaxel [compound (15)],–,relatively weak,–
